Three compounds from paper PMC5116409 (Nanomedicine : nanotechnology, biology, and medicine, 2016) can be followed below.

The target in series [1] is T1, HIV-1 reverse transcriptase G190A (Human immunodeficiency virus type 1 group M subtype B, UniProt P03366, G789A). Put plainly: RNA-dependent DNA polymerization by recombinant HIV-1 RT. Type of series: biochemical.
Series [2] has as its target T2, HIV-1 reverse transcriptase K103N (Human immunodeficiency virus type 1 group M subtype B, UniProt P03366, K702N). Briefly: DNA-dependent DNA polymerization by recombinant HIV-1 RT. Type of series: biochemical.
A short description of series [3]: toxicity to cells, WST-1 test. The series is classed as cell-based. The note with it: human.
Series [4] has as its target T3, HIV-1 reverse transcriptase L100I (Human immunodeficiency virus type 1 group M subtype B, UniProt P03366, L699I). Briefly: DNA-dependent DNA polymerization by recombinant HIV-1 RT. The series is classed as biochemical.
The target of series [5] is T4, HIV-1 reverse transcriptase Wild type (Human immunodeficiency virus type 1 group M subtype B, UniProt P03366). Described as above. Type of series: biochemical. The note with it: From DMSO stock solution.
Series [6] addresses T5, HIV-1 reverse transcriptase Y181C (Human immunodeficiency virus type 1 group M subtype B, UniProt P03366, Y780C). The series is described as above. The series is classed as biochemical.
The target in series [7] is T6, HIV-1 reverse transcriptase K103N+Y181C (Human immunodeficiency virus type 1 group M subtype B, UniProt P03366, K702N/Y780C). Briefly: RNA-dependent DNA polymerization by recombinant HIV-1 RT. The series is classed as biochemical. The note with it: From DMSO stock solution.
The target in series [8] is T4, HIV-1 reverse transcriptase Wild type. Put plainly: biochemical. The note with it: RNA-dependent DNA polymerization, IC50, Wild type RT; From DMSO stock solution.
Series [9] deals with T2, HIV-1 reverse transcriptase K103N. Briefly: RNA-dependent DNA polymerization by recombinant HIV-1 RT. Type of series: biochemical.
In series [10] the target is T1, HIV-1 reverse transcriptase G190A. Briefly: DNA-dependent DNA polymerization by recombinant HIV-1 RT. Type of series: biochemical.
For series [11], the target named is T7, HIV-1 reverse transcriptase V106A (Human immunodeficiency virus type 1 group M subtype B, UniProt P03366, V705A). Briefly: RNA-dependent DNA polymerization by recombinant HIV-1 RT. Type of series: biochemical.
The target in series [12] is T3, HIV-1 reverse transcriptase L100I. The description is as above. Type of series: biochemical.
Series [13] deals with T7, HIV-1 reverse transcriptase V106A. Put plainly: DNA-dependent DNA polymerization by recombinant HIV-1 RT. The series is classed as biochemical.
Series [14] addresses T5, HIV-1 reverse transcriptase Y181C. Briefly: RNA-dependent DNA polymerization by recombinant HIV-1 RT. The series is classed as biochemical.
The target in series [15] is T6, HIV-1 reverse transcriptase K103N+Y181C. Put plainly: DNA-dependent DNA polymerization by recombinant HIV-1 RT. Type of series: biochemical. The note with it: From DMSO stock solution.

Where only a bound is given, the exact number is not on record here.

Regarding `Cc1cc(C)cc(C(=O)c2cc(C)ccc2OCCn2ccc(=O)[nH]c2=O)c1` [Z007, 1-(2-(2-(3,5-dimethylbenzoyl)-4-methylphenoxy)ethyl)pyrimidine-2,4(1H,3H)-dione], the IC50 in series [1] (Complex with HC-PGC (M5P21OL)), in series [1] (From DMSO stock solution), in [2] (Complex with HC-PGC (M5P21OL)), in series [2] (From DMSO stock solution), in series [4] (Complex with HC-PGC (M5P21OL)) and in [4] (From DMSO stock solution) was greater than 100 µM in each case. Moreover, the IC50 was 40 ± 10 µM in [5]; greater than 100 µM in series [6] (Complex with HC-PGC (M5P21OL)); greater than 100 µM in series [6] (From DMSO stock solution); greater than 100 µM in series [7]; 50 ± 20 µM in series [8]; greater than 100 µM in [9] (Complex with HC-PGC (M5P21OL)). Further, the IC50 in [9] (From DMSO stock solution) was greater than 100 µM; in series [10] (Complex with HC-PGC (M5P21OL)) it was greater than 100 µM; in series [10] (From DMSO stock solution), greater than 100 µM; in [11], greater than 100 µM; in [12] (Complex with HC-PGC (M5P21OL)), greater than 100 µM; in [12] (From DMSO stock solution), 100 ± 30 µM. The IC50 in [13], in series [14] (Complex with HC-PGC (M5P21OL)), in series [14] (From DMSO stock solution) and in [15] was greater than 100 µM in each case. Besides, in [3], the CC50 at 4 h was greater than 50 µM.

Consider `O=C(c1cc(Cl)cc(Cl)c1)c1cc(Br)ccc1OCCn1ccc(=O)[nH]c1=O` [Z011, 1-(2-(4-bromo-2-(3,5-dichlorobenzoyl)phenoxy)ethyl)pyrimidine-2,4(1H,3H)-dione], for which the IC50 in series [2] (Complex with HC-PGC (M5P21OL)) was greater than 100 µM; in series [2] (From DMSO stock solution) it was 6 ± 1 µM; in [4] (Complex with HC-PGC (M5P21OL)) it was greater than 100 µM; in series [4] (From DMSO stock solution), 1.8 ± 0.6 µM; in series [5] it was 0.7 ± 0.1 µM; in series [6] (Complex with HC-PGC (M5P21OL)), 22 ± 5 µM. Also, the half-inhibitory concentration (IC50) in series [6] (From DMSO stock solution) was 1.4 ± 0.5 µM; in [10] (Complex with HC-PGC (M5P21OL)), 2.6 ± 0.7 µM; in [10] (From DMSO stock solution) it was 1.6 ± 0.3 µM; in series [13] it was greater than 100 µM; in series [15], 10 ± 3 µM. In addition, the CC50 at 4 h in series [3] was greater than 50 µM.

On to `Cc1cc(C)cc(C(=O)c2cc(Cl)ccc2OCCn2c3c(c(=O)[nH]c2=O)CCC3)c1` [Z107, 1-(2-(4-chloro-2-(3,5-dimethylbenzoyl)phenoxy)ethyl)-1,5,6,7-tetrahydro-2H-cyclopenta[d]pyrimidine-2,4(3H)-dione], for which the IC50 in series [1] (Complex with HC-PGC (M5P21OL)) turned out to be 70 ± 20 µM; in [1] (From DMSO stock solution), 35 ± 10 µM; in series [2] (Complex with HC-PGC (M5P21OL)), 95 ± 15 µM; in series [2] (From DMSO stock solution) it was 70 ± 2 µM; in [4] (Complex with HC-PGC (M5P21OL)), 1.5 ± 0.2 µM; in series [4] (From DMSO stock solution), 3 ± 1 µM. For the same compound, the IC50 was 0.7 ± 0.2 µM in series [5]; 1.9 ± 0.5 µM in series [6] (Complex with HC-PGC (M5P21OL)); 6 ± 2 µM in [6] (From DMSO stock solution); 80 ± 30 µM in series [7]; 3 ± 1 µM in series [8]; 100 ± 30 µM in series [9] (Complex with HC-PGC (M5P21OL)). Further, the concentration for half-maximal inhibition (IC50) in series [9] (From DMSO stock solution) is 40 ± 10 µM; in series [10] (Complex with HC-PGC (M5P21OL)), 0.9 ± 0.3 µM; in series [10] (From DMSO stock solution) it was 45 ± 15 µM; in series [11] it was greater than 100 µM; in [12] (Complex with HC-PGC (M5P21OL)) it was 15 ± 4 µM; in series [12] (From DMSO stock solution), 10 ± 3 µM. The IC50 was greater than 100 µM in [13], 40 ± 10 µM in [14] (Complex with HC-PGC (M5P21OL)), 5 ± 2 µM in series [14] (From DMSO stock solution) and 50 ± 20 µM in series [15]. Besides, the CC50 at 4 h in series [3] is greater than 50 µM.
